From ChEMBL document CHEMBL5620376, “Design, synthesis and anti-NASH effect evaluation of novel GFT505 derivatives in vitro and in vivo” (Eur J Med Chem, 2023)
Active and inactive are the calls of the source. No cut-off for these calls is given here.

Key:
HepG2 [1] = experiment: Cytotoxicity against human HepG2 cells assessed as inhibition of cell proliferation at 20 to 80 micromol/L incubated for 24 hrs by MTT assay; format: functional, cell-based; conditions: dose 20-80 µmol/L
HepG2 [2] = experiment: Anti-NASH activity in free fatty acid-induced nonalcoholic steatohepatitis model in human HepG2 cells assessed as reduction in intracellular lipid accumulation at 40 micromol/L incubated for 24 hrs by Oil Red O/ Hematoxylin staining based analysis; format: functional, cell-based; conditions: dose 40.0 µmol/L
HepG2 [3] = experiment: Anti-NASH activity in free fatty acid-induced nonalcoholic steatohepatitis model in human HepG2 cells assessed as reduction in intracellular triglyceride level measured per mg of protein at 40 micromol/L incubated for 24 hrs; format: functional, cell-based; conditions: dose 40.0 µmol/L
Mus musculus [4] = experiment: Anti-NASH activity in MCD diet-induced nonalcoholic steatohepatitis C57BL/6 mouse assessed as reduction in triglyceride level in serum at 30 mg/kg,po administrated for 28 days; format: functional; conditions: time 28 day
HepG2 [5] = experiment: Anti-NASH activity in free fatty acid-induced nonalcoholic steatohepatitis model in human HepG2 cells assessed as reduction in AST activity at 40 micromol/L incubated for 24 hrs; format: functional; conditions: dose 40 µmol/L
Mus musculus [6] = experiment: Anti-NASH activity in MCD diet-induced nonalcoholic steatohepatitis C57BL/6 mouse assessed as decrease in serum AST activity at 3 to 30 mg/kg,po administrated for 28 days; format: functional, organism-based; conditions: dose 3-30 mg/kg, time 28.0 day
[7] = Hepatotoxicity in MCD diet-induced C57BL/6 mouse assessed as reduction in liver index at 3 to 30 mg/kg,po administrated for 4 weeks by hematoxylin and eosin staining based microscopic analysis; format: toxicity, organism-based; conditions: in vivo, 672 h, dose 3-30 mg/kg
Mus musculus [8] = experiment: Anti-NASH activity in MCD diet-induced nonalcoholic steatohepatitis C57BL/6 mouse assessed as reduction in triglyceride level in serum at 10 mg/kg,po administrated for 28 days; format: functional; conditions: time 28 day
Mus musculus [9] = experiment: Anti-NASH activity in MCD diet-induced nonalcoholic steatohepatitis C57BL/6 mouse assessed as decrease in serum TNF-alpha level at 3 to 30 mg/kg,po administrated for 28 days; format: functional, organism-based; conditions: dose 3-30 mg/kg, time 28.0 day
Mus musculus [10] = experiment: Anti-NASH activity in MCD diet-induced nonalcoholic steatohepatitis C57BL/6 mouse assessed as reduction in total cholesterol level in serum at 3 to 30 mg/kg,po administrated for 28 days; format: functional, organism-based; conditions: dose 3-30 mg/kg, time 28.0 day
Mus musculus [11] = experiment: Anti-NASH activity in MCD diet-induced nonalcoholic steatohepatitis C57BL/6 mouse assessed as increase in liver GSH level at 3 to 30 mg/kg,po administrated for 28 days; format: functional, organism-based; conditions: dose 3-30 mg/kg, time 28.0 day
Mus musculus [12] = experiment: Anti-NASH activity in MCD diet-induced nonalcoholic steatohepatitis C57BL/6 mouse assessed as increase in serum HDL level at 3 to 30 mg/kg,po administrated for 28 days; format: functional, organism-based; conditions: dose 3-30 mg/kg, time 28.0 day
Mus musculus [13] = experiment: Anti-NASH activity in MCD diet-induced nonalcoholic steatohepatitis C57BL/6 mouse assessed as reduction in triglyceride level in serum at 3 mg/kg,po administrated […]; format: functional
Mus musculus [14] = experiment: Anti-NASH activity in MCD diet-induced nonalcoholic steatohepatitis C57BL/6 mouse assessed as decrease in serum ALT activity at 10 mg/kg,po administrated for 28 days; format: functional, organism-based; conditions: time 28.0 day
Mus musculus [15] = experiment: Anti-NASH activity in MCD diet-induced nonalcoholic steatohepatitis C57BL/6 mouse assessed as decrease in serum IL-6 level at 3 to 30 mg/kg,po administrated for 28 days; format: functional, organism-based; conditions: dose 3-30 mg/kg, time 28.0 day
Mus musculus [16] = experiment: Anti-NASH activity in MCD diet-induced nonalcoholic steatohepatitis C57BL/6 mouse assessed as decrease in serum ALT activity at 30 mg/kg,po administrated for 28 days; format: functional, organism-based; conditions: time 28.0 day
Mus musculus [17] = experiment: Anti-NASH activity in MCD diet-induced nonalcoholic steatohepatitis C57BL/6 mouse assessed as decrease in serum LDL level at 3 to 30 mg/kg,po administrated for 28 days; format: functional, organism-based; conditions: dose 3-30 mg/kg, time 28.0 day
Mus musculus [18] = experiment: Anti-NASH activity in MCD diet-induced nonalcoholic steatohepatitis C57BL/6 mouse assessed as decrease in serum IL-8 level at 3 to 30 mg/kg,po administrated for 28 days; format: functional, organism-based; conditions: dose 3-30 mg/kg, time 28.0 day
Mus musculus [19] = experiment: Anti-NASH activity in MCD diet-induced nonalcoholic steatohepatitis C57BL/6 mouse assessed as reduction in triglyceride level in serum at 3 mg/kg,po administrated for 28 days; format: functional, organism-based; conditions: time 28.0 day
Mus musculus [20] = experiment: Anti-NASH activity in MCD diet-induced nonalcoholic steatohepatitis C57BL/6 mouse assessed as reduction in triglyceride level in serum at 3 to 30 mg/kg,po administrated for 28 days; format: functional, organism-based; conditions: dose 3-30 mg/kg, time 28.0 day
Mus musculus [21] = experiment: Anti-NASH activity in MCD diet-induced nonalcoholic steatohepatitis C57BL/6 mouse assessed as increase in liver GSH level at 30 mg/kg,po administrated for 28 days; format: functional; conditions: time 28 day
Mus musculus [22] = experiment: Anti-NASH activity in MCD diet-induced nonalcoholic steatohepatitis C57BL/6 mouse assessed as decrease in serum TNF-alpha level at 100 mg/kg,po administrated for 28 days; format: functional, organism-based; conditions: time 28.0 day
HepG2 [23] = experiment: Anti-NASH activity in free fatty acid-induced nonalcoholic steatohepatitis model in human HepG2 cells assessed as reduction in intracellular lipid accumulation at 100 micromol/L incubated for 24 hrs by Oil Red O/ Hematoxylin staining based analysis; format: functional, cell-based; conditions: dose 100.0 µmol/L
Mus musculus [24] = experiment: Anti-NASH activity in MCD diet-induced nonalcoholic steatohepatitis C57BL/6 mouse assessed as decrease in serum IL-6 level at 100 mg/kg,po administrated for 28 days; format: functional, organism-based; conditions: time 28.0 day
Mus musculus [25] = experiment: Anti-NASH activity in MCD diet-induced nonalcoholic steatohepatitis C57BL/6 mouse assessed as reduction in triglyceride level in serum at 100 mg/kg,po administrated for 28 days; format: functional, organism-based; conditions: time 28.0 day
HepG2 [26] = experiment: Anti-NASH activity in free fatty acid-induced nonalcoholic steatohepatitis model in human HepG2 cells assessed as reduction in AST activity at 100 micromol/L incubated for 24 hrs; format: functional; conditions: dose 100 µmol/L
Mus musculus [27] = experiment: Anti-NASH activity in MCD diet-induced nonalcoholic steatohepatitis C57BL/6 mouse assessed as increase in liver GSH level at 100 mg/kg,po administrated for 28 days; format: functional, organism-based; conditions: time 28.0 day
Mus musculus [28] = experiment: Anti-NASH activity in MCD diet-induced nonalcoholic steatohepatitis C57BL/6 mouse assessed as decrease in serum LDL level at 100 mg/kg,po administrated for 28 days; format: functional, organism-based; conditions: time 28.0 day
HepG2 [29] = experiment: Anti-NASH activity in free fatty acid-induced nonalcoholic steatohepatitis model in human HepG2 cells assessed as reduction in intracellular triglyceride level measured per mg of protein at 100 micromol/L incubated for 24 hrs; format: functional; conditions: dose 100 µmol/L
Mus musculus [30] = experiment: Anti-NASH activity in MCD diet-induced nonalcoholic steatohepatitis C57BL/6 mouse assessed as decrease in serum AST activity at 100 mg/kg,po administrated for 28 days; format: functional, organism-based; conditions: time 28.0 day
Mus musculus [31] = experiment: Anti-NASH activity in MCD diet-induced nonalcoholic steatohepatitis C57BL/6 mouse assessed as increase in serum HDL level at 100 mg/kg,po administrated for 28 days; format: functional, organism-based; conditions: time 28.0 day
[32] = Hepatotoxicity in MCD diet-induced C57BL/6 mouse assessed as reduction in liver index at 100 mg/kg,po administrated for 4 weeks by hematoxylin and eosin staining based microscopic analysis; format: toxicity, organism-based; conditions: in vivo, 672 h
Mus musculus [33] = experiment: Anti-NASH activity in MCD diet-induced nonalcoholic steatohepatitis C57BL/6 mouse assessed as decrease in serum ALT activity at 100 mg/kg,po administrated for 28 days; format: functional, organism-based; conditions: time 28.0 day

Cc1cc(/C=C/C(=O)c2ccc(N(C)C)cc2)cc(C)c1OC(C)(C)C(=O)OC(C)(C)C
Activity (HepG2 [1]): inactive
Activity (HepG2 [2]): inactive
Activity (HepG2 [3]): inactive

CSc1ccc(C(=O)/C=C/c2cc(C)c(OC(C)(C)C(=O)O)c(C)c2)cc1 [ELAFIBRANOR]
Activity (HepG2 [1]): Active
Activity (Mus musculus [4]): 0.53 mmol/L
Activity (HepG2 [5]): 18.31 U/g
Activity (Mus musculus [6]): Active
Activity [7]: Toxic
Activity (Mus musculus [8]): 0.69 mmol/L
Activity (Mus musculus [9]): Active
Activity (HepG2 [2]): Active
Activity (Mus musculus [10]): Active
Activity (Mus musculus [11]): Active
Activity (Mus musculus [12]): Active
Activity (Mus musculus [13]): 0.64 mmol/L
Activity (HepG2 [3]): Active
Activity (Mus musculus [14]): Active
Activity (Mus musculus [15]): Active
Activity (Mus musculus [16]): Active
Activity (Mus musculus [17]): Active
Activity (Mus musculus [18]): Active
Activity (Mus musculus [19]): inactive

CNc1ccc(C(=O)/C=C/c2cc(C)c(OC(C)(C)C(=O)OC(C)(C)C)c(C)c2)cc1
Activity (HepG2 [1]): inactive
Activity (HepG2 [5]): 18.65 U/g
Activity (Mus musculus [6]): Active
Activity [7]: Non-Toxic
Activity (Mus musculus [9]): Active
Activity (HepG2 [2]): Active
Activity (Mus musculus [10]): Active
Activity (Mus musculus [11]): Active
Activity (Mus musculus [12]): Active
Activity (HepG2 [3]): Active
Activity (Mus musculus [14]): Active
Activity (Mus musculus [15]): Active
Activity (Mus musculus [16]): Active
Activity (Mus musculus [17]): Active
Activity (Mus musculus [18]): Active
Activity (Mus musculus [20]): Active
Activity (Mus musculus [21]): 47.8 µmol/g

Cc1cc(/C=C/C(=O)c2ccc(N(C)Cc3ccccc3)cc2)cc(C)c1OC(C)(C)C(=O)OC(C)(C)C
Activity (HepG2 [1]): inactive
Activity (HepG2 [2]): Active
Activity (HepG2 [3]): Active

CSc1ccc(C(=O)/C=C/c2cc(C)c(OC(C)(C)C(=O)OC(C)(C)C)c(C)c2)cc1
Activity (HepG2 [1]): inactive
Activity (HepG2 [2]): Active
Activity (HepG2 [3]): Active

Cc1cc(/C=C/C(=O)c2ccc(N(C)Cc3ccccc3)cc2)cc(C)c1OC(C)(C)C(=O)O
Activity (HepG2 [1]): inactive
Activity (HepG2 [2]): Active
Activity (HepG2 [3]): Active

Cc1cc(/C=C/C(=O)c2ccc(N(C)C)cc2)cc(C)c1OC(C)(C)C(=O)O
Activity (HepG2 [1]): inactive
Activity (HepG2 [2]): Active
Activity (HepG2 [3]): Active

CNc1ccc(C(=O)/C=C/c2cc(C)c(OC(C)(C)C(=O)O)c(C)c2)cc1
Activity (HepG2 [1]): inactive
Activity (HepG2 [2]): inactive
Activity (HepG2 [3]): inactive

CC(C)OC(=O)C(C)(C)Oc1ccc(C(=O)c2ccc(Cl)cc2)cc1 [FENOFIBRATE]
Activity (Mus musculus [22]): Active
Activity (HepG2 [23]): Active
Activity (Mus musculus [24]): Active
Activity (Mus musculus [25]): Active
Activity (HepG2 [26]): 19.78 U/g
Activity (Mus musculus [27]): Active
Activity (Mus musculus [28]): Active
Activity (HepG2 [29]): 0.15 mmol
Activity (Mus musculus [30]): Active
Activity (Mus musculus [31]): Active
Activity [32]: Toxic
Activity (Mus musculus [33]): Active

COc1ccc(C(=O)/C=C/c2cc(C)c(OC(C)(C)C(=O)OC(C)(C)C)c(C)c2)cc1
Activity (HepG2 [1]): inactive
Activity (HepG2 [2]): Active
Activity (HepG2 [3]): Active

C[Se]c1ccc(C(=O)/C=C/c2cc(C)c(OC(C)(C)C(=O)O)c(C)c2)cc1
Activity (HepG2 [1]): Active
Activity (HepG2 [2]): Active
Activity (HepG2 [3]): Active

COc1ccc(C(=O)/C=C/c2cc(C)c(OC(C)(C)C(=O)O)c(C)c2)cc1
Activity (HepG2 [1]): Active
Activity (HepG2 [2]): Active
Activity (HepG2 [3]): Active

C[Se]c1ccc(C(=O)/C=C/c2cc(C)c(OC(C)(C)C(=O)OC(C)(C)C)c(C)c2)cc1
Activity (HepG2 [1]): inactive
Activity (HepG2 [2]): Active
Activity (HepG2 [3]): Active
